Literature values in patent US20030073069A1, “Drug rescue by redesign of ADMET/PK properties” (priority 2001, published 2003).
Like-named read-outs stand apart in the source and are kept apart here.

Experiments:
[1] = FIG. 8
P450 [2] = tested on: P450
P450 [3] = settings: induction of a P450
[4] = development for memory enhancement abandoned

| SMILES | No. of currently known drug interactions that involve the compound, Induction (P450 [3]) | No. of currently known drug interactions that involve the compound, Inhibition (P450 [2]; inhibition of a P450) | further results |
| --- | --- | --- | --- |
| CN(C)Cc1nnc2n1-c1ccc(Cl)cc1C(c1ccccc1)=NC2 [adinazolam] | – | – | bioavailability, experimentally observed [1]: low; half lives, experimentally observed [1]: short |
| Cc1nnc2n1-c1ccc(Cl)cc1C(c1ccccc1)=NC2 [alprazolam] | 3 | – | No. of currently known drug interactions that involve the compound, Inhibition (P450 [2]): 15 |
| CN(C)CCC=C1c2ccccc2CCc2ccccc21 [amitriptyline] | 11 | 5 | – |
| NC(=O)N1c2ccccc2C=Cc2ccccc21 [carbamazepine] | 9 | 3 | – |
| CNC1=Nc2ccc(Cl)cc2C(c2ccccc2)=[N+]([O-])C1 [chlordiazepoxide] | 3 | – | No. of currently known drug interactions that involve the compound, Inhibition (P450 [2]): 7 |
| CC[C@H]1OC(=O)[C@H](C)[C@@H](O[C@H]2C[C@@](C)(OC)[C@@H](O)[C@H](C)O2)[C@H](C)[C@@H](O[C@@H]2O[C@H](C)C[C@H](N(C)C)[C@H]2O)[C@](C)(OC)C[C@@H](C)C(=O)[C@H](C)[C@@H](O)[C@]1(C)O [clarithromycin] | 1 | 1 | – |
| CN(C)CCCN1c2ccccc2CCc2ccc(Cl)cc21 [clomipramine] | 11 | 5 | – |
| O=C1CN=C(c2ccccc2Cl)c2cc([N+](=O)[O-])ccc2N1 [clonazepam] | 3 | – | No. of currently known drug interactions that involve the compound, Inhibition (P450 [2]): 10 |
| O=C(O)C1N=C(c2ccccc2)c2cc(Cl)ccc2NC1=O (stereo not drawn) [clorazepate] | 3 | – | No. of currently known drug interactions that involve the compound, Inhibition (P450 [2]): 7 |
| CN1CCN(C2=Nc3cc(Cl)ccc3Nc3ccccc32)CC1 [clozapine] | 1 | 2 | – |
| C[C@]12CCC(=O)C=C1CC[C@@H]1[C@@H]2C(=O)C[C@@]2(C)[C@H]1CC[C@]2(O)C(=O)CO [cortisone] | 15 | – | – |
| CC(C)Nc1cccnc1N1CCN(C(=O)c2cc3cc(NS(C)(=O)=O)ccc3[nH]2)CC1 [delavirdine] | 2 | – | – |
| CNCCCN1c2ccccc2CCc2ccccc21 [desipramine] | 1 | 4 | – |
| COc1ccc2c(c1)[C@]13CCCC[C@@H]1[C@H](C2)N(C)CC3 [detromethorphan] | 1 | – | – |
| C[C@@H]1C[C@H]2[C@@H]3CCC4=CC(=O)C=C[C@]4(C)[C@@]3(F)[C@@H](O)C[C@]2(C)[C@@]1(O)C(=O)CO [dexamethasone] | 14 | – | – |
| CC(C)N(CCC(C(N)=O)(c1ccccc1)c1ccccn1)C(C)C (stereo not drawn) [disopyramide] | 3 | – | – |
| CN(C)CCC=C1c2ccccc2COc2ccccc21 [doxepin] | 11 | 4 | – |
| C[C@H]1c2cccc(O)c2C(=O)C2=C(O)[C@]3(O)C(=O)C(C(N)=O)=C(O)[C@@H](N(C)C)[C@@H]3[C@@H](O)[C@@H]21 [doxycycline] | 3 | – | – |
| Clc1ccc2c(c1)C(c1ccccc1)=NCc1nncn1-2 [estazolam] | 3 | – | No. of currently known drug interactions that involve the compound, Inhibition (P450 [2]): 7 |
| CCOC(=O)C1=C(C)NC(C)=C(C(=O)OC)C1c1cccc(Cl)c1Cl (stereo not drawn) [felodipine] | 4 | 1 | – |
| C[C@]12CCC(=O)C=C1CC[C@H]1[C@@H]3CC[C@](O)(C(=O)CO)[C@@]3(C)C[C@H](O)[C@@]12F [fludrocortisone] | 14 | – | – |
| CCN(CC)CCN1C(=O)CN=C(c2ccccc2F)c2cc(Cl)ccc21 [flurazepam] | 3 | – | No. of currently known drug interactions that involve the compound, Inhibition (P450 [2]): 7 |
| O=C1CN=C(c2ccccc2)c2cc(Cl)ccc2N1CC(F)(F)F [halazepam] | 3 | – | No. of currently known drug interactions that involve the compound, Inhibition (P450 [2]): 7 |
| O=C(CCCN1CCC(O)(c2ccc(Cl)cc2)CC1)c1ccc(F)cc1 [haloperidol] | 3 | – | – |
| C[C@]12CCC(=O)C=C1CC[C@@H]1[C@@H]2[C@@H](O)C[C@@]2(C)[C@H]1CC[C@]2(O)C(=O)CO [hydrocortisone] | 14 | 1 | – |

| SMILES | No. of currently known drug interactions that involve the compound, Induction (P450 [3]) | No. of currently known drug interactions that involve the compound, Inhibition (P450 [2]; inhibition of a P450) | further results |
| --- | --- | --- | --- |
| CN(C)CCCN1c2ccccc2CCc2ccccc21 [imipramine] | 11 | 5 | – |
| CCC(C)n1ncn(-c2ccc(N3CCN(c4ccc(OCC5COC(Cn6cncn6)(c6ccc(Cl)cc6Cl)O5)cc4)CC3)cc2)c1=O (stereo not drawn) [itraconazole] | 5 | – | – |
| CC(=O)N1CCN(c2ccc(OCC3COC(Cn4ccnc4)(c4ccc(Cl)cc4Cl)O3)cc2)CC1 (stereo not drawn) [ketoconazole] | 2 | – | – |
| CCC1(c2ccccc2)NC(=O)N(C)C1=O (stereo not drawn) [mephenytoin] | 2 | 4 | – |
| CCC(=O)C(CC(C)N(C)C)(c1ccccc1)c1ccccc1 (stereo not drawn) [methadone] | 8 | – | – |
| C[C@H]1C[C@@H]2[C@H]([C@@H](O)C[C@@]3(C)[C@H]2CC[C@]3(O)C(=O)CO)[C@@]2(C)C=CC(=O)C=C12 [methylprednisolone] | 14 | 1 | – |
| Clc1ccc(COC(Cn2ccnc2)c2ccc(Cl)cc2Cl)c(Cl)c1 (stereo not drawn) [miconazole] | 2 | – | – |
| Cc1ncc2n1-c1ccc(Cl)cc1C(c1ccccc1F)=NC2 [midazolam] | 3 | – | bioavailability, experimentally observed [1]: low; half lives, experimentally observed [1]: short; No. of currently known drug interactions that involve the compound, Inhibition (P450 [2]): 15 |
| Cc1c(O)cccc1C(=O)N[C@@H](CSc1ccccc1)[C@H](O)CN1C[C@H]2CCCC[C@H]2C[C@H]1C(=O)NC(C)(C)C [nelfinavir] | 2 | – | – |
| COC(=O)C1=C(C)NC(C)=C(C(=O)OCC(C)C)C1c1ccccc1[N+](=O)[O-] (stereo not drawn) [nisoldipine] | 4 | 3 | – |
| CNCCC=C1c2ccccc2CCc2ccccc21 [nortriptyline] | 11 | 4 | – |
| CCC1(c2ccccc2)C(=O)NC(=O)NC1=O [phenobarbital] | 1 | – | – |
| O=C1NC(=O)C(c2ccccc2)(c2ccccc2)N1 [phenytoin] | 1 | 4 | – |
| C[C@]12C=CC(=O)C=C1CC[C@@H]1[C@@H]2[C@@H](O)C[C@@]2(C)[C@H]1CC[C@]2(O)C(=O)CO [prednisolone] | 10 | 1 | – |
| Fc1ccccc1C1=NCC(=S)N(CC(F)(F)F)c2ccc(Cl)cc21 [quazepam] | 3 | – | No. of currently known drug interactions that involve the compound, Inhibition (P450 [2]): 7 |
| C=C[C@H]1C[N@@]2CC[C@H]1C[C@@H]2[C@@H](O)c1ccnc2ccc(OC)cc12 [quinidine] | 13 | 4 | – |
| C=C[C@H]1C[N@@]2CC[C@H]1C[C@H]2[C@H](O)c1ccnc2ccc(OC)cc12 [quinine] | 2 | – | – |
| CC(C)c1nc(CN(C)C(=O)N[C@H](C(=O)N[C@@H](Cc2ccccc2)C[C@H](O)[C@H](Cc2ccccc2)NC(=O)OCc2cncs2)C(C)C)cs1 [ritonavir] | 3 | – | – |
| C=CC[C@@H]1/C=C(\C)C[C@H](C)C[C@H](OC)[C@H]2O[C@@](O)(C(=O)C(=O)N3CCCC[C@H]3C(=O)O[C@H](/C(C)=C/[C@@H]3CC[C@@H](O)[C@H](OC)C3)[C@H](C)[C@@H](O)CC1=O)[C@H](C)C[C@@H]2OC [tacrolimus] | 3 | 4 | – |
| CCCCCNC(=N)N/N=C/c1c[nH]c2ccc(OC)cc12 [tegaserod] | – | – | ability to breach the Blood-Brain-Barrier, as found [4]: not to breach the Blood-Brain-Barrier |
| C[C@]12C=CC(=O)C=C1CC[C@H]1[C@@H]3C[C@@H](O)[C@](O)(C(=O)CO)[C@@]3(C)C[C@H](O)[C@@]12F [triamcinolone] | 10 | – | – |
| Cc1nnc2n1-c1ccc(Cl)cc1C(c1ccccc1Cl)=NC2 [triazolam] | 3 | – | No. of currently known drug interactions that involve the compound, Inhibition (P450 [2]): 15 |
| CC(CN(C)C)CN1c2ccccc2CCc2ccccc21 (stereo not drawn) [trimipramine] | 9 | 4 | – |
| CC(=O)CC(c1ccccc1)c1c(O)c2ccccc2oc1=O (stereo not drawn) [warfarin] | 2 | 12 | – |
| Cc1ccc(-c2nc3ccc(C)cn3c2CC(=O)N(C)C)cc1 [zolpidem] | 2 | – | No. of currently known drug interactions that involve the compound, Inhibition (P450 [2]): 2 |
